Results published in US20160318856A1, “Substituted Urea eIF2alpha Kinase Activators” (THE BRIGHAM AND WOMEN'S HOSPITAL, INC., priority 2013, published 2016).
Where two headings read alike, the source gives them in different places.

Tests used:
[1] = tested on: eIF2α phosphorylation (eIF2•GTP•Met-tRNAi ternary complex; HRI activation); test: surrogate dual luciferase eIF2α phosphorylation (ternary complex) assay; format: cell-based, human; conditions: for maximal fold induction: Homo sapiens, read-out: Emax (F/R)
Source text: The dual luciferase expression vector and other plasmids used for these studies were previously described (see, for example, Ziegeler, G. et al. Journal of Biological Chemistry 2010, 285(20), 15408-19). The ternary complex assay, surrogate of eIF2α phosphorylation, has been described elsewhere (see, for example, Chen, T. et al. Nature Chemical Biology 2011, 7(9), 610-6). Briefly, the pBISA vector, which contains seven copies of the tetracycline-regulated transactivator response element (TRE), is flanked on both sides by minimal human cytomegalovirus (CMV) minimal promoters allowing bi-directional transcription and two MCSs (multiple cloning sites). Firefly and renilla luciferases were subcloned into MCS-I and MCS-II, respectively. This plasmid, designated pBISA-DL, transcribes two mRNAs that contain the 90 nucleotide plasmid derived 5′UTR (same sequence in both mRNAs), and the ORF encoding either firefly or renilla luciferase followed by a polyadenylation sequence. This plasmid was further modified by inserting the 5′UTR of ATF-4 mRNA into MCS-I in front of the firefly luciferase mRNA. Transcription from this unit generates an mRNA that contains the firefly luciferase ORF preceded by a 5′UTR composed of 90 nucleotides derived from the plasmid and 267 nucleotides derived from the 5′UTR of ATF-4 mRNA. Transcription from the other unit generates an mRNA that contains the renilla luciferase ORF proceeded only by the 90-nucleotide plasmid-derived sequence in the 5′UTR (pBISA-DL (ATF-4)) (see, for example, Chen, T. et al. Nature Chemical Biology 2011, 7(9), 610-6).
Cells expressing firefly and renilla luciferases were assayed with a dual glow luciferase assay kit, per manufacturer's instruction (Promega Inc., Madison, Wis.). The data calculations were carried out as the ratio of firefly to renilla luciferase signal.
A library of 1900 urea compounds was screened in the surrogate dual luciferase eIF2α phosphorylation (ternary complex) assay. This library was originally assembled and screened for inhibition of sEH by Hammock's group at UC-Davis (see, for example, Chen, T. et al. Nature Chem Biol 2011, 7, 610-616; Ziegeler, G et al. J Biol Chem 2010, 285, 15408-15419). We developed this assay in order to identify compounds that activate HRI, taking advantage of the fact that activated HRI phosphorylates eIF2α thereby reducing the amount of the eIF2•GTP•Met-tRNAi ternary complex that results in inhibition of translation of many mRNAs but paradoxically increases translation of some mRNAs that contain multiple upstream ORF (uORF) in their 5′ untranslated regions (UTRs). In our assay, firefly (F) luciferase mRNA is fused to 5′UTR of activating transcription factor 4 (ATF-4) mRNA that has multiple uORFs while renilla (R) luciferase mRNA is fused to a 5′UTR lacking any uORFs. Compounds that reduce the amount of the ternary complex, such as those activating HRI, would increase F luciferase expression while decreasing the R luciferase expression, resulting in an increased F/R luciferase ratio. To calculate the activity scores, the F/R ratios for every compound-treated wells were normalized to vehicle-treated (DMSO) wells that was arbitrarily set at 1 (F/R=1).

[2] = tested on: CRL-2813 human melanoma cancer cells; test: cell proliferation (SRB) assay, CRL-2813; format: cell-based; conditions: read-out: IC50
Procedure: Cells were seeded in 96-well plates and maintained for 5 days in the presence of 0.5 to 20 μM of individual compound, and cell proliferation was measured by the sulforhodamine B (SRB) assay as described previously (see, for example, Palakurthi, S. S. et al. Cancer Research 2000, 60(11), 2919-2925). Briefly, at the end of a 5-day treatment, cells were fixed in 10% cold trichloroacetic acid. Cell number was estimated by measuring the remaining bound dye of sulforhodamine B after washing. The percentage of growth was calculated by using the equation: 100×[(T−T0)/(C−T0)], where T and C represent the absorbance in treated and control cultures at Day 5, and T0 at time zero, respectively. If T is less than T0, cell death has occurred and can be calculated from 100×[(T−T0)/T0].

[3] = ternary complex assay, F/R normalized to vehicle (DMSO = 1)
[4] = cell proliferation assay (SRB, 5 days), cell line not named in Table 1, values equal CRL-2813 values of Tables 5/8
[5] = Homo sapiens, CRL2813, 120 h, cell proliferation assay (SRB, 5 days), cell line not named in Table 1, values equal CRL-2813 values of Tables 5/8
[6] = Homo sapiens, CRL2813, cell proliferation assay, Table 3, cell line not named, values equal CRL-2813 values of Table 8
[7] = surrogate eIF2α phosphorylation assay, Table 3
[8] = cell proliferation assay, Table 2, cell line not named

Structure (SMILES) | Emax (F/R) [1, 3] [F/R] | IC50 [2, 4] [µM] | other results
O=C(Nc1cccc(F)c1)NC1CCC(Oc2ccc(F)cc2)CC1 (centres unmarked) [Compound I-1m] | 6.54 | 8.3 ± 0.9 | –
O=C(Nc1ccccc1F)NC1CCC(Oc2ccc(F)cc2)CC1 (centres unmarked) [Compound I-1o] | 2.10 | 17.5 ± 1.1 | –
O=C(Nc1ccc(F)cc1)NC1CCC(Oc2ccc(F)cc2)CC1 (centres unmarked) [Compound I-1p] | 0.98 | 20 ± 2.1 | –
O=C(Nc1cccc(Cl)c1)NC1CCC(Oc2ccc(F)cc2)CC1 (centres unmarked) [Compound I-2m] | 8.76 | 5.9 ± 0.6 | –
O=C(Nc1ccccc1Cl)NC1CCC(Oc2ccc(F)cc2)CC1 (centres unmarked) [Compound I-2o] | 5.37 | 9.1 ± 1 | –
O=C(Nc1ccc(Cl)cc1)NC1CCC(Oc2ccc(F)cc2)CC1 (centres unmarked) [Compound I-2p] | 1.65 | > 20 | –
O=C(Nc1cccc(Br)c1)NC1CCC(Oc2ccc(F)cc2)CC1 (centres unmarked) [Compound I-3m] | 9.52 | 6.2 ± 0.3 | –
O=C(Nc1ccccc1Br)NC1CCC(Oc2ccc(F)cc2)CC1 (centres unmarked) [Compound I-3o] | 5.23 | 7.7 ± 0.1 | –
O=C(Nc1ccc(Br)cc1)NC1CCC(Oc2ccc(F)cc2)CC1 (centres unmarked) [Compound I-3p] | 1.29 | > 20 | –
O=C(Nc1cccc(I)c1)NC1CCC(Oc2ccc(F)cc2)CC1 (centres unmarked) [Compound I-4m] | 10.32 | 5.2 ± 0.2 | –
O=C(Nc1ccccc1I)NC1CCC(Oc2ccc(F)cc2)CC1 (centres unmarked) [Compound I-4o] | 3.25 | > 20 | –
O=C(Nc1ccc(I)cc1)NC1CCC(Oc2ccc(F)cc2)CC1 (centres unmarked) [Compound I-4p] | 3.77 | 10.2 ± 1.5 | –
O=C(Nc1cccc(C(F)(F)F)c1)NC1CCC(Oc2ccc(F)cc2)CC1 (centres unmarked) [Compound I-5m] | – | – | maximal fold induction [1, 3]: 11.8; IC50 [2, 5]: 2.6 ± 0.3 µM; IC50 [2, 6]: 2.6 ± 0.6 µM
O=C(Nc1ccccc1C(F)(F)F)NC1CCC(Oc2ccc(F)cc2)CC1 (centres unmarked) [Compound I-5o] | 1.56 | > 20 | –
O=C(Nc1ccc(C(F)(F)F)cc1)NC1CCC(Oc2ccc(F)cc2)CC1 (centres unmarked) [Compound I-5p] | 13.99 | 2.8 ± 0.1 | –
O=C(Nc1ccccc1OC(F)(F)F)NC1CCC(Oc2ccc(F)cc2)CC1 (centres unmarked) [Compound I-6o] | 1.41 | > 20 | –
Cc1cccc(NC(=O)NC2CCC(Oc3ccc(F)cc3)CC2)c1 (centres unmarked) [Compound I-7m] | 4.73 | 14.4 ± 0.5 | –
Cc1ccccc1NC(=O)NC1CCC(Oc2ccc(F)cc2)CC1 (centres unmarked) [Compound I-7o] | 0.98 | > 20 | –
Cc1ccc(NC(=O)NC2CCC(Oc3ccc(F)cc3)CC2)cc1 (centres unmarked) [Compound I-7p] | 1.05 | > 20 | –
COc1cccc(NC(=O)NC2CCC(Oc3ccc(F)cc3)CC2)c1 (centres unmarked) [Compound I-8m] | 3.81 | 14 ± 1.3 | –
COc1ccccc1NC(=O)NC1CCC(Oc2ccc(F)cc2)CC1 (centres unmarked) [Compound I-8o] | 1.51 | > 20 | –

Structure (SMILES) | Emax (F/R) [1, 3] [F/R] | IC50 [2, 4] [µM] | other results
COc1ccc(NC(=O)NC2CCC(Oc3ccc(F)cc3)CC2)cc1 (centres unmarked) [Compound I-8p] | 0.83 | > 20 | –
O=C(Nc1cccc([N+](=O)[O-])c1)NC1CCC(Oc2ccc(F)cc2)CC1 (centres unmarked) [Compound I-9m] | 7.47 | 6.7 ± 0.7 | –
O=C(Nc1ccccc1[N+](=O)[O-])NC1CCC(Oc2ccc(F)cc2)CC1 (centres unmarked) [Compound I-9o] | 2.23 | 3.5 ± 0.3 | –
O=C(Nc1ccc([N+](=O)[O-])cc1)NC1CCC(Oc2ccc(F)cc2)CC1 (centres unmarked) [Compound I-9p] | 9.00 | 2.3 ± 0.1 | –
CSc1cccc(NC(=O)NC2CCC(Oc3ccc(F)cc3)CC2)c1 (centres unmarked) [Compound I-10m] | 6.67 | 11.1 ± 1.1 | –
CSc1ccccc1NC(=O)NC1CCC(Oc2ccc(F)cc2)CC1 (centres unmarked) [Compound I-10o] | 0.92 | > 20 | –
CSc1ccc(NC(=O)NC2CCC(Oc3ccc(F)cc3)CC2)cc1 (centres unmarked) [Compound I-10p] | 1.07 | > 20 | –
COC(=O)c1cccc(NC(=O)NC2CCC(Oc3ccc(F)cc3)CC2)c1 (centres unmarked) [Compound I-11m] | 6.83 | 9.2 ± 0.8 | –
COC(=O)c1ccccc1NC(=O)NC1CCC(Oc2ccc(F)cc2)CC1 (centres unmarked) [Compound I-11o, methyl 2-(3-(4-(4-fluorophenoxy)cyclohexyl)ureido)benzoate] | – | – | maximal fold induction [1, 3]: 3.79; IC50 [2, 5]: 14.5 ± 1.6 µM
COC(=O)c1ccc(NC(=O)NC2CCC(Oc3ccc(F)cc3)CC2)cc1 (centres unmarked) [Compound I-11p] | 3.97 | 11.6 | –
O=C(Nc1cccc(C(=O)O)c1)NC1CCC(Oc2ccc(F)cc2)CC1 (centres unmarked) [Compound I-12m] | 0.88 | > 20 | –
O=C(Nc1ccccc1C(=O)O)NC1CCC(Oc2ccc(F)cc2)CC1 (centres unmarked) [Compound I-12o, 2-(3-(4-(4-fluorophenoxy)cyclohexyl)ureido)benzoic acid] | – | – | maximal fold induction [1, 3]: 1.2; IC50 [2, 5]: > 20 µM
O=C(Nc1ccc(C(=O)O)cc1)NC1CCC(Oc2ccc(F)cc2)CC1 (centres unmarked) [Compound I-12p] | 3.49 | 11.6 ± 1.8 | –
O=C(Nc1ccccc1)NC1CCC(Oc2ccc(F)cc2)CC1 (centres unmarked) [Compound I-13] | 1.65 | 20 ± 2 | –
O=C(Nc1cccc(C(F)(F)F)c1)NC1CCC(Oc2ccc(Cl)cc2)CC1 (centres unmarked) [Compound I-16, 1-(4-(4-Chlorophenoxy)cyclohexyl)-3-(3-(trifluoromethyl)phenyl)urea] | – | – | maximal fold induction [1, 7]: 6.73; IC50 [2, 6]: 2 ± 0.1 µM
O=C(Nc1cccc(C(F)(F)F)c1)NC1CCC(Oc2ccccc2C(F)(F)F)CC1 (centres unmarked) [Compound I-19, 1-(4-(2-(Trifluoromethyl)phenoxy)cyclohexyl)-3-(3-(trifluoromethyl)phenyl)urea] | – | – | maximal fold induction [1, 7]: 15.7; IC50 [2, 6]: 1.4 ± 0.3 µM
O=C(Nc1cccc(F)c1)N[C@H]1CC[C@H](OCc2c(F)cccc2F)CC1 [II-1m] | – | – | Emax (F/R) ([1]; 7.5 μM compound): 0.72 F/R; Emax (F/R) ([1]; 15 μM compound): 0.77 F/R; Emax (F/R) ([1]; 30 μM compound): 0.67 F/R; IC50 [2, 8]: > 20 µM
O=C(Nc1ccccc1F)N[C@H]1CC[C@H](OCc2c(F)cccc2F)CC1 [II-1o] | – | – | Emax (F/R) ([1]; 7.5 μM compound): 0.96 F/R; Emax (F/R) ([1]; 15 μM compound): 0.98 F/R; Emax (F/R) ([1]; 30 μM compound): 0.89 F/R; IC50 [2, 8]: > 20 µM
O=C(Nc1cccc(Cl)c1)N[C@H]1CC[C@H](OCc2c(F)cccc2F)CC1 [II-2m] | – | – | Emax (F/R) ([1]; 7.5 μM compound): 0.79 F/R; Emax (F/R) ([1]; 15 μM compound): 0.78 F/R; Emax (F/R) ([1]; 30 μM compound): 0.75 F/R; IC50 [2, 8]: > 20 µM
O=C(Nc1ccccc1Cl)N[C@H]1CC[C@H](OCc2c(F)cccc2F)CC1 [II-2o] | – | – | Emax (F/R) ([1]; 7.5 μM compound): 0.81 F/R; Emax (F/R) ([1]; 15 μM compound): 0.69 F/R; Emax (F/R) ([1]; 30 μM compound): 0.81 F/R; IC50 [2, 8]: > 20 µM
O=C(Nc1ccc(Cl)cc1)N[C@H]1CC[C@H](OCc2c(F)cccc2F)CC1 [II-2p] | – | – | Emax (F/R) ([1]; 7.5 μM compound): 0.95 F/R; Emax (F/R) ([1]; 15 μM compound): 0.96 F/R; Emax (F/R) ([1]; 30 μM compound): 0.74 F/R; IC50 [2, 8]: > 20 µM
